Assay results as given in ChEMBL document CHEMBL1157778, “Frontal affinity chromatography-mass spectrometry useful for characterization of new ligands for GPR17 receptor” (J Med Chem, 2010).

Legend:
Type in all cases: functional, cell-based
[1] = target: T1, Uracil nucleotide/cysteinyl leukotriene receptor (Homo sapiens, UniProt Q13304); test: Antagonist activity at human GPR17 expressed in human 1321N1 cells assessed as inhibition of UDP-glucose-induced [35S]GTPgammaS binding after 30 mins by rapid filtration assay
T1 sequence (Q13304 whole entry): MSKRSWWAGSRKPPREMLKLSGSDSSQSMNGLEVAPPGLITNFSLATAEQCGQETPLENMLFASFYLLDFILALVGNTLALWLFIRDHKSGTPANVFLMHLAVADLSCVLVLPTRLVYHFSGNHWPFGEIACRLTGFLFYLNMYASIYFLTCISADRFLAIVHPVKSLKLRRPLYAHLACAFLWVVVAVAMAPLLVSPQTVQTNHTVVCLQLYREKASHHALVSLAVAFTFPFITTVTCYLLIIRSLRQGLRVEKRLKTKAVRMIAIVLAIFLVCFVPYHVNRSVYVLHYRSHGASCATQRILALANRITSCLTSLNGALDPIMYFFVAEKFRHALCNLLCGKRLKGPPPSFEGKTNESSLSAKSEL

[2] = Antagonist activity at human GPR17 R255I mutant expressed in human 1321N1 cells assessed as inhibition of UDP-glucose-induced [35S]GTPgammaS binding after 30 mins by rapid filtration assay
[3] = target: T1, Uracil nucleotide/cysteinyl leukotriene receptor; test: Agonist activity at human GPR17 expressed in human 1321N1 cells assessed as induction of [35S]GTPgammaS binding after 30 mins by rapid filtration assay
[4] = Agonist activity at human GPR17 R255I mutant expressed in human 1321N1 cells assessed as induction of [35S]GTPgammaS binding after 30 mins by rapid filtration assay

| SMILES | IC50 [1] | EC50 [3] | further results |
| --- | --- | --- | --- |
| O=c1[nH]c(=O)n([C@@H]2O[C@H](COP(=O)(O)OP(=O)(O)O)[C@@H](O)[C@H]2O)cc1I | – | 945 nM | EC50 [4]: 1870 nM |
| CNc1nc(Cl)cc2c1ncn2[C@@H]1O[C@H](COP(=O)(O)OP(=O)(O)OP(=O)(O)O)[C@@H](O)[C@H]1O | – | 1.7 nM | – |
| CNc1ncnc2c1ncn2[C@@H]1O[C@H](COP(=O)(O)OP(=O)(O)OP(=O)(O)O)[C@@H](O)[C@H]1O | 112 nM | – | – |
| Nc1nc(C#Cc2ccccc2)nc2c1ncn2[C@@H]1O[C@H](COP(=O)(O)OP(=O)(O)OP(=O)(O)O)[C@@H](O)[C@H]1O | – | 0.036 nM | EC50 [4]: 0.0254 nM |
| O=P(O)(O)OP(=O)(O)OP(=O)(O)OC[C@H]1O[C@@H](n2cnc3c(NC4CCCC4)ncnc32)[C@H](O)[C@@H]1O | – | 1.4 nM | – |

Now from value to compound, other results behind:

| IC50 [1] | EC50 [3] | SMILES | further results |
| --- | --- | --- | --- |
| 508 nM | – | CNc1ncnc2c1ncn2[C@H]1C[C@H](OP(=O)(O)O)[C@@H](COP(=O)(O)O)O1 | IC50 [2]: 227 nM |
| – | 11 nM | CNc1nc(Cl)nc2c1ncn2[C@@H]1O[C@H](COP(=O)(O)OP(=O)(O)OP(=O)(O)O)[C@@H](O)[C@H]1O | – |
| 582 nM | – | Nc1nc(Cl)nc2c1ncn2[C@H]1C[C@H](OP(=O)(O)O)[C@@H](COP(=O)(O)O)O1 | – |
